# Entries after “also recorded” stand apart in the source; their conditions may differ.
# What was measured:
# [1] = test system: Enterococcus faecalis; assay: Anti-biofilm activity (data not shown); assay type: cell-based
# [2] = test system: S. aureus SA113 (ATCC 35556); assay: Biofilm formation on polycarbonate discs (crystal violet); assay type: cell-based; settings: Staphylococcus aureus, ATCC35556, 6 hours, read-out: inhibition of biofilm formation on polycarbonate surface
# Method: To quantify the amount of biofilm formed on polycarbonate surface, a 13-mm-diameter polycarbonate disc (Thermanox, Nalgene Nunc International, Rochester, N.Y., USA) was placed in a well of a 24-well microtiter plate, followed by the addition of 1 mL aliquot of the diluted bacterial culture. After incubation at 37° C. for a designated period of time, viable cells were washed off the surface of the polycarbonate disc with PBS and counted as described above, while the PBS-washed polycarbonate disc was subjected to crystal violet staining for biofilm quantification as described above.
# (§1) To determine the effect(s) of (β-PGG upon bacterial growth and biofilm formation, β-PGG in various amounts (final concentration: 0, 1.56, 3.13, 6.25, 12.5, 25 and 50 μM) was added into the culture of S. aureus SA113 during seeding into the wells of polystyrene microtiter plates, followed by incubation at 37° C. for 6 hrs or 24 hrs. Cell growth was determined by measuring the absorbance at 578 nm, and the amount of biofilm formed on polystyrene surface was determined at 595 nm after crystal violet staining. In addition to polystyrene surface, the effect of β-PGG in inhibiting biofilm formation on polycarbonate surface was also examined according to the procedures as described in the preceding section entitled “Materials and methods.”
# [3] = test system: S. aureus SA113Δica (ATCC 35556Δica::tet); assay: Biofilm formation by ica deletion mutant on polystyrene surface; assay type: cell-based, Staphylococcus aureus; settings: 6 hrs
# Method: (§2) An overnight bacterial culture was 200-fold diluted with TSBg, and a 200 μL aliquot of the diluted culture was seeded into each well of 96-well polystyrene microtiter plates and incubated at 37° C. for a designated period of time. Cell growth was determined by measuring the absorbance at 578 nm (A578) with a microtiter plate reader (SpectraMax 340, Molecular Devices). After washing with PBS twice to remove suspended cells, the wells were stained with 0.1% (w/v) crystal violet in 10% ethanol and then treated with 30% acetic acid in dH2O, followed by detecting the absorbance at 595 nm (A595) with the microtiter plate reader to quantify the amount of biofilm formed on polystyrene surface.
# [4] = test system: S. aureus SA113; assay: Adherence assay: β-PGG added at different times after inoculation, biofilm by crystal violet at 6 hours; assay type: cell-based, Staphylococcus aureus; settings: for reduction of biofilm formation: read at 6 hours
# Method: At 6 hours after seeding, the wells were subjected to crystal violet staining to determine the amounts of biofilm formed on the inner surfaces of the wells of polystyrene microtiter plates or on the polycarbonate discs.
# [5] = test system: S. aureus SA113 (ATCC 35556); assay: Bacterial growth (A578) and biofilm formation (crystal violet, A595) in 96-well polystyrene microtiter plates; assay type: cell-based, Staphylococcus aureus; settings: for Biofilm (%) / Growth (%): 6 hours after seeding, control = 100%, mean ± SD
# Method: as §2
# An overnight culture of S. aureus SA113 was 200-fold diluted with TSBg, and a 200 μL aliquot of the diluted culture was seeded into each well of 96-well microtiter plates. Compounds purified from medicinal plants were added into each well at a designated concentration up to […]. At 6 hours after seeding, the amounts of biofilms formed in the wells were determined by crystal violet staining as described above. Cells treated with either distilled water or DMSO were used as a control. The amount of biofilm formation by the control group was set as 100%. Each experiment was repeated at least three times, with n=6 for each sample tested. The concentrations of compounds that inhibited 50% biofilm formation (IB50) were calculated based on logistic regression analysis results. Besides, the biofilm formation inhibition rate of a PGG-treated group was calculated using the following equation (1). Biofilm formation inhibition rate(%)=[(A−B)/A]×100 (1) wherein:
# In the wells of 96-well microtiter plates, S. aureus SA113 cells were cultured in TSBg broth in the presence of either β-PGG or α-PGG at different amounts (0, 1 and 10 μM). After incubation at 37° C. for 6 hrs, the cell density was determined by measuring the absorbance at 578 nm (A578), and the amounts of biofilm were quantified by crystal violet staining, with the amount of biofilm formed by untreated bacterial cells being set as 100%. Each experiment was repeated three times, with n=6 for each sample tested.
# as §1
# [6] = test system: icaA gene transcription in S. aureus SA113; assay: icaA expression by real-time RT-PCR; assay type: cell-based, Staphylococcus aureus; settings: concentrations below 50 μM, 5 hr treatment, normalized to gyrB
# Method: Bacterial cells were treated with 0.5 mg/mL lysostaphin (Sigma-Aldrich) at 37° C. for 15 min, and total bacterial mRNA was isolated and purified using a TRIzol reagent (Invitrogen) according to the manufacturer's instructions, followed by quantification of icaA expression by real-time RT-PCR (LightCycler, Roche, Mannheim, Germany). The icaA mRNA was reverse-transcribed and amplified using primers A1 (5′-[…]-3′) (SEQ ID NO:1) and B1 (5′-[…]-3′) (SEQ ID NO:2) that were designed based on the sequence of the icaA gene (Gene ID:3921484). […] Amplified PCR products were detected using a Light Cycler-RNA Amplification Kit Cyber Green 1 (Roche, Mannheim, Germany), starting with a cycle of denaturation at 95° C. for 5 min, then running for 45 cycles as follows: at 95° C. for 30 sec, 62° C. for 30 sec and 72° C. for 20 sec. To monitor the specificity of RT-PCR reaction, the PCR products were analyzed by melting curve analysis.
# To determine whether the β-PGG inhibition effected at the transcriptional level, total mRNAs were isolated from S. aureus SA113 cells after 5 hr treatment with β-PGG at various concentration (0, 3.13, 12.5 and 50 μM), and transcription of the icaA gene was analyzed by LightCycler quantitative RT-PCR.
structure (smiles),measurement,setting,value
"O=C(OC[C@H]1O[C@@H](OC(=O)c2cc(O)c(O)c(O)c2)[C@H](OC(=O)c2cc(O)c(O)c(O)c2)[C@@H](OC(=O)c2cc(O)c(O)c(O)c2)[C@@H]1OC(=O)c1cc(O)c(O)c(O)c1)c1cc(O)c(O)c(O)c1 [β-PGG, 1,2,3,4,6-penta-O-galloyl-β-D-glucopyranose]",anti-biofilm activity,[1],potent to mild anti-biofilm activity
same,inhibition at 6.25 µM,[2]; 6.25 μM,75%
same,inhibition at 12.5 µM,[2]; 12.5 μM,96%
same,inhibition at 25 µM,[2]; 25 μM,99%
same,"effect on biofilm formation by the mutant, polystyrene surface",[3]; 1.56 μM,did not affect the biofilm formation
same,"decrease of the amount of biofilm, polystyrene surface",[3]; 3.13 μM,72%
same,reduction of biofilm formation,"[4]; 6.25 μM added at 0.5 hr after inoculation, DMSO = 100%",62%
same,reduction of biofilm formation,"[4]; 6.25 μM added at 1 hr after inoculation, DMSO = 100%",19%
same,reduction of biofilm formation,[4]; 12.5 μM added at 0.5 and 1 hr after inoculation,more than 90%
same,inhibition of biofilm formation,[4]; added at 1.5 and 2 hr after inoculation,not inhibited
same,time of addition after seeding at which β-PGG is effective,[4]; added into the culture medium after seeding,≤ 1 h
same,viability of S. aureus SA113 cells (A578),"[5]; 1 μM and 10 μM, 6 hour incubation (anomer comparison)",did not affect the viability
same,reduction of biofilm formation,"[5]; 1 μM, 6 hour incubation (anomer comparison)",10%
same,killing of S. aureus SA113,[5]; 10 μM,did not kill S. aureus SA113
same,reduction of biofilm formation,"[5]; 10 μM, 6 hour incubation (anomer comparison)",65%
same,Biofilm (%),[5]; 10 μM,5 ± 1%
same,Growth (%),[5]; 10 μM,109 ± 8%
same,Growth (A578),"[5]; 12.5 μM β-PGG, 6 hr, 0 μM: 0.68 ± 0.02",0.65 ± 0.03
same,Biofilm (A595),"[5]; 12.5 μM β-PGG, 6 hr, 0 μM: 6.31 ± 0.34",0.26 ± 0.28
same,reduction of biofilm formation,"[5]; 100 μM, 6 hours",98%
same,Biofilm (%),[5]; 100 μM,2 ± 0%
same,Growth (%),[5]; 100 μM,69 ± 5 %
same,amounts of biofilm on polystyrene surface after 24 hr incubation,[5]; 24 hrs,approximately equal to those observed after 6 hr incubation
same,inhibition at 6.25 µM,"[5]; Staphylococcus aureus, ATCC35556, 6.25 μM, 6 hrs, read-out: inhibition of biofilm formation on polystyrene surface",93%
same,inhibition at 10 µM,"[5]; Staphylococcus aureus, ATCC35556, 10 μM, 6 hr incubation (screening)",95%
same,inhibition at 12.5 µM,"[5]; Staphylococcus aureus, ATCC35556, 12.5 μM, 6 hrs, read-out: inhibition of biofilm formation on polystyrene surface",96%
same,inhibition at 25 µM,"[5]; Staphylococcus aureus, ATCC35556, 25 μM, 6 hrs, read-out: inhibition of biofilm formation on polystyrene surface",97%
same,inhibition at 100 µM,"[5]; Staphylococcus aureus, ATCC35556, 100 μM, 6 hours",31%
same,IC50,"[5]; Staphylococcus aureus, ATCC35556, 6 hours, logistic regression, read-out: IB50 (concentration that inhibited 50% biofilm formation)",3.6 µM
same,viability of S. aureus SA113,"[5]; concentrations below 50 μM, 6 hours incubation",did not affect the viability; also recorded: did not kill S. aureus SA113 cells
same,Cell Growth (%),[5]; growth compared to untreated control at the concentration of IB50,100%
same,transcription of icaA,[6],did not influence the transcription of icaA
